Source: ChEMBL document CHEMBL2440076, “New triarylpyrazoles as broad-spectrum anticancer agents: design, synthesis, and biological evaluation” (Eur J Med Chem, 2013)

Key:
Type in all cases: functional
SNB-19 = test: Growth inhibition of human SNB19 cells assessed as cell growth at 5X10'-5 M after 48 hrs by sulforhodamine B assay; details: SNB-19, 48 h, read-out: Activity
HCT-116 [1] = test: Growth inhibition of human HCT116 cells assessed as cell growth at 5X10'-6 M after 48 hrs by sulforhodamine B assay; details: HCT-116, 48 h, read-out: Activity
CAKI-1 [2] = test: Growth inhibition of human CAKI-1 cells assessed as cell growth at 5X10'-5 M after 48 hrs by sulforhodamine B assay; details: CAKI-1, 48 h, read-out: Activity
SF-268 = test: Growth inhibition of human SF268 cells assessed as cell growth at 5X10'-7 M after 48 hrs by sulforhodamine B assay; details: SF-268, 48 h, read-out: Activity
SK-MEL-28 = test: Growth inhibition of human SK-MEL-28 cells assessed as cell growth at 5X10'-6 M after 48 hrs by sulforhodamine B assay; details: SK-MEL-28, 48 h, read-out: Activity
TK-10 = test: Growth inhibition of human TK10 cells assessed as cell growth at 5X10'-6 M after 48 hrs by sulforhodamine B assay; details: TK-10, 48 h, read-out: Activity
[3] = Growth inhibition of human Hs 578T cells assessed as cell growth at 5X10'-5 M after 48 hrs by sulforhodamine B assay; details: read-out: Activity
NCI-H226 [4] = test: Growth inhibition of human NCI-H226 cells assessed as cell growth at 5X10'-9 M after 48 hrs by sulforhodamine B assay; details: NCI-H226, 48 h, read-out: Activity
ACHN = test: Growth inhibition of human ACHN cells assessed as cell growth at 5X10'-9 M after 48 hrs by sulforhodamine B assay; details: read-out: Activity
[5] = Growth inhibition of human HCC2998 cells assessed as cell growth at 5X10'-6 M after 48 hrs by sulforhodamine B assay; details: HCC 2998, 48 h, read-out: Activity
A498 [6] = test: Growth inhibition of human A498 cells assessed as cell growth at 5X10'-5 M after 48 hrs by sulforhodamine B assay; details: A498, 48 h, read-out: Activity
MOLT-4 = test: Growth inhibition of human MOLT4 cells assessed as cell growth at 5X10'-5 M after 48 hrs by sulforhodamine B assay; details: MOLT-4, 48 h, read-out: Activity
NCI-H226 [7] = test: Growth inhibition of human NCI-H226 cells assessed as cell growth at 5X10'-7 M after 48 hrs by sulforhodamine B assay; details: NCI-H226, 48 h, read-out: Activity
HOP-62 [8] = test: Growth inhibition of human HOP62 cells assessed as cell growth at 5X10'-5 M after 48 hrs by sulforhodamine B assay; details: HOP-62, 48 h, read-out: Activity
BT-549 = test: Growth inhibition of human BT549 cells assessed as cell growth at 5X10'-5 M after 48 hrs by sulforhodamine B assay; details: BT-549, 48 h, read-out: Activity
PC-3 [9] = test: Growth inhibition of human PC3 cells assessed as cell growth at 5X10'-8 M after 48 hrs by sulforhodamine B assay; details: PC-3, 48 h, read-out: Activity
[10] = Growth inhibition of human NCI-ADR-RES cells assessed as cell growth at 5X10'-9 M after 48 hrs by sulforhodamine B assay; details: read-out: Activity
M14 [11] = test: Growth inhibition of human M14 cells assessed as cell growth at 5X10'-8 M after 48 hrs by sulforhodamine B assay; details: M14, 48 h, read-out: Activity
CAKI-1 [12] = test: Growth inhibition of human CAKI-1 cells assessed as cell growth at 5X10'-8 M after 48 hrs by sulforhodamine B assay; details: CAKI-1, 48 h, read-out: Activity
KM12 = test: Growth inhibition of human KM12 cells assessed as cell growth at 5X10'-9 M after 48 hrs by sulforhodamine B assay; details: KM12, 48 h, read-out: Activity
RPMI-8226 = test: Growth inhibition of human RPMI8226 cells assessed as cell growth at 5X10'-6 M after 48 hrs by sulforhodamine B assay; details: RPMI-8226, 48 h, read-out: Activity
LOX IMVI = test: Growth inhibition of human LOXIMVI cells assessed as cell growth at 5X10'-9 M after 48 hrs by sulforhodamine B assay; details: read-out: Activity
SK-MEL-2 = test: Growth inhibition of human SK-MEL-2 cells assessed as cell growth at 5X10'-8 M after 48 hrs by sulforhodamine B assay; details: SK-MEL-2, 48 h, read-out: Activity
PC-3 [13] = test: Growth inhibition of human PC3 cells assessed as cell growth at 5X10'-5 M after 48 hrs by sulforhodamine B assay; details: PC-3, 48 h, read-out: Activity
COLO 205 = test: Growth inhibition of human COLO205 cells assessed as cell growth at 5X10'-6 M after 48 hrs by sulforhodamine B assay; details: COLO 205, 48 h, read-out: Activity
T47D = test: Growth inhibition of human T47D cells assessed as cell growth at 5X10'-7 M after 48 hrs by sulforhodamine B assay; details: read-out: Activity
HL-60(TB) = test: Growth inhibition of human HL-60(TB) cells assessed as cell growth at 5X10'-5 M after 48 hrs by sulforhodamine B assay; details: HL-60, 48 h, read-out: Activity
786-0 = test: Growth inhibition of human 786-0 cells assessed as cell growth at 5X10'-5 M after 48 hrs by sulforhodamine B assay; details: 786-0, 48 h, read-out: Activity
HCT-116 [14] = test: Growth inhibition of human HCT116 cells assessed as cell growth at 5X10'-7 M after 48 hrs by sulforhodamine B assay; details: HCT-116, 48 h, read-out: Activity
SN12C = test: Growth inhibition of human SN12C cells assessed as cell growth at 5X10'-6 M after 48 hrs by sulforhodamine B assay; details: read-out: Activity
M14 [15] = test: Growth inhibition of human M14 cells assessed as cell growth at 5X10'-7 M after 48 hrs by sulforhodamine B assay; details: M14, 48 h, read-out: Activity
HOP-62 [16] = test: Growth inhibition of human HOP62 cells assessed as cell growth at 5X10'-9 M after 48 hrs by sulforhodamine B assay; details: HOP-62, 48 h, read-out: Activity
SK-OV-3 = test: Growth inhibition of human SKOV3 cells assessed as cell growth at 5X10'-8 M after 48 hrs by sulforhodamine B assay; details: SK-OV-3, 48 h, read-out: Activity
DU-145 = test: Growth inhibition of human DU145 cells assessed as cell growth at 5X10'-9 M after 48 hrs by sulforhodamine B assay; details: DU-145, 48 h, read-out: Activity
OVCAR-3 = test: Growth inhibition of human OVCAR3 cells assessed as cell growth at 5X10'-7 M after 48 hrs by sulforhodamine B assay; details: OVCAR-3, 48 h, read-out: Activity
A498 [17] = test: Growth inhibition of human A498 cells assessed as cell growth at 5X10'-8 M after 48 hrs by sulforhodamine B assay; details: A498, 48 h, read-out: Activity
OVCAR-4 = test: Growth inhibition of human OVCAR4 cells assessed as cell growth at 5X10'-7 M after 48 hrs by sulforhodamine B assay; details: OVCAR-4, 48 h, read-out: Activity

SMILES: COc1cc(-c2nn(-c3cccc(NC(=O)Nc4cc(C(F)(F)F)cc(C(F)(F)F)c4)c3)cc2-c2ccncc2)ccc1Cl
- growth at 50 µM (SNB-19): -40%
- growth at 5 µM (HCT-116 [1]): -52%
- growth at 50 µM (CAKI-1 [2]): -50%
- growth at 0.5 µM (SF-268): 87%
- growth at 5 µM (SK-MEL-28): -78%
- growth at 5 µM (TK-10): -34%
- growth at 50 µM [3]: -10%
- growth at 0.005 µM (NCI-H226 [4]): 97%
- growth at 0.005 µM (ACHN): 104%
- growth at 5 µM [5]: -70%
- growth at 50 µM (A498 [6]): -89%
- growth at 50 µM (MOLT-4): -11%
- growth at 0.5 µM (NCI-H226 [7]): 83%
- growth at 50 µM (HOP-62 [8]): -95%
- growth at 50 µM (BT-549): -57%
- growth at 0.05 µM (PC-3 [9]): 90%
- growth at 0.005 µM [10]: 105%
- growth at 0.05 µM (M14 [11]): 107%
- growth at 0.05 µM (CAKI-1 [12]): 95%
- growth at 0.005 µM (KM12): 103%
- growth at 5 µM (RPMI-8226): 3%
- growth at 0.005 µM (LOX IMVI): 101%
- growth at 0.05 µM (SK-MEL-2): 115%
- growth at 50 µM (PC-3 [13]): -31%
- growth at 5 µM (COLO 205): -94%
- growth at 0.5 µM (T47D): 89%
- growth at 50 µM (HL-60(TB)): 6%
- growth at 50 µM (786-0): -63%
- growth at 0.5 µM (HCT-116 [14]): 62%
- growth at 5 µM (SN12C): -16%
- growth at 0.5 µM (M14 [15]): 71%
- growth at 0.005 µM (HOP-62 [16]): 100%
- growth at 0.05 µM (SK-OV-3): 103%
- growth at 0.005 µM (DU-145): 106%
- growth at 0.5 µM (OVCAR-3): 45%
- growth at 0.05 µM (A498 [17]): 82%
- growth at 0.5 µM (OVCAR-4): 73%
